This is an account of results in ChEMBL document CHEMBL3046470, “Design, synthesis, anti-inflammatory, analgesic screening, and molecular docking of some novel 2-pyridyl (3H)-quinazolin-4-one derivatives” (2013).

In assay [1] the test system is Rattus norvegicus. The assay can be described thus: Anti-inflammatory activity against Rattus norvegicus Albino Sprague-Dawley (rat) assessed as inhibition of carrageenan-induced paw edema at 50 mg/kg, ip administered 30 min prior to carrageenan injection measured after 4 hr by plethysmometer analysis. In kind it is functional, organism-based. Set-up: dose 50 mg/kg. On the technique in general: Carrageenan injected into the paw causes an acute inflammation.

The test system of assay [2] is Rattus norvegicus. The assay can be described thus: Anti-inflammatory activity against Rattus norvegicus albino Sprague-Dawley (rat) assessed as inhibition of carrageenan-induced paw edema at 50 mg/kg, ip administered 30 min prior to carrageenan injection measured after 3 hr by plethysmometer analysis. In kind it is functional, organism-based. Also noted: dose 50 mg/kg.

Assay [3] concerns Rattus norvegicus. As to the kind of experiment: Anti-inflammatory activity against Rattus norvegicus Albino Sprague-Dawley (rat) assessed as inhibition of carrageenan-induced paw edema at 50 mg/kg, ip administered 30 min prior to carrageenan injection measured after 2 hr by plethysmometer analysis. It is filed as functional. The following applies: for inhibition in vivo at 50 mg/kg: route intraperitoneal.

In assay [4] the test system is Rattus norvegicus. As to the kind of experiment: Anti-inflammatory activity against Rattus norvegicus Albino Sprague-Dawley (rat) assessed as inhibition of carrageenan-induced paw edema at 50 mg/kg, ip administered 30 min prior to carrageenan injection measured after 1 hr by plethysmometer analysis. It is filed as functional. The following applies: for inhibition in vivo at 50 mg/kg: route intraperitoneal.

The subject of assay [5] is Mus musculus. As to the kind of experiment: Analgesic activity in Mus musculus Swiss (mouse) assessed as inhibition of acetic acid-induced writhing administered 1 hr prior to acetic acid injection measured after 5 min for 30 min. It is filed as functional. The following applies: read-out: PD50.
Assay [6] concerns Mus musculus. As to the kind of experiment: Analgesic activity in Mus musculus Swiss (mouse) assessed as inhibition of acetic acid-induced writhing at 50 mg/kg, sc administered 1 hr prior to acetic acid injection measured after 5 min for 30 min. It is filed as functional. The following applies: route subcutaneous.
Assay [7] has as its system Rattus norvegicus. The assay can be described thus: Anti-inflammatory activity against Rattus norvegicus Albino Sprague-Dawley (rat) assessed as inhibition of carrageenan-induced paw edema at 18 mg/kg, ip administered 30 min prior to carrageenan injection measured after 1 hr by plethysmometer analysis. In kind it is functional. The following applies: route intraperitoneal.

Assay [8] deals with Rattus norvegicus. The assay can be described thus: Anti-inflammatory activity against Rattus norvegicus Albino Sprague-Dawley (rat) assessed as inhibition of carrageenan-induced paw edema administered 30 min prior to carrageenan injection measured after 4 hr by plethysmometer analysis. In kind it is functional.

Calls of active or inactive are those of the source. No cut-off for these calls is given here.

Broadly, the inhibition in vivo is how much of the control response was suppressed. For `Nc1nc(-c2ccc(-n3c(-c4ccncc4)nc4ccc(Br)cc4c3=O)cc2)cs1`, the inhibition entry with Rattus norvegicus [1], in the assay with Rattus norvegicus [2] and in the assay on Rattus norvegicus [4] was “Active” throughout. In addition, in the assay on Rattus norvegicus [3], the inhibition in vivo at 50 mg/kg is 62.8%.

For the compound `O=c1c2cc(Br)ccc2nc(-c2ccncc2)n1-c1ccc(-c2csc(O)n2)cc1`, in the assay with Mus musculus [5], the ED50 was found to be 15 mg/kg. In addition, the inhibition in vivo at 50 mg/kg in the assay with Mus musculus [6] was determined as 75.7%; with Rattus norvegicus [3], 67.3%. Besides, the inhibition entry in the assay with Rattus norvegicus [1], with Rattus norvegicus [2] and in the assay with Rattus norvegicus [4] was “Active” throughout.

Turning to `COc1ccc2c(c1)c(CC(=O)O)c(C)n2C(=O)c1ccc(Cl)cc1` [INDOMETHACIN], in the assay on Rattus norvegicus [7], the inhibition in vivo at 18 mg/kg is 62.9%.

`O=C(/C=C/c1ccc(Cl)cc1)c1ccc(-n2c(-c3ccncc3)nc3ccc(Br)cc3c2=O)cc1`: the inhibition result in the assay on Rattus norvegicus [1], in the assay with Rattus norvegicus [2] and in the assay with Rattus norvegicus [3] was “Active” in each case. The inhibition in vivo at 50 mg/kg with Rattus norvegicus [4] stood at 73.8%.

With `O=C(/C=C/c1ccc([N+](=O)[O-])cc1)c1ccc(-n2c(-c3ccncc3)nc3ccc(Br)cc3c2=O)cc1`, the ED50 with Rattus norvegicus [8] is 22.3 mg/kg. The inhibition entry in the assay with Rattus norvegicus [1], in the assay on Rattus norvegicus [2] and in the assay on Rattus norvegicus [4] was “Active” in each case. Further, the inhibition in vivo at 50 mg/kg with Rattus norvegicus [3] was determined as 70.5%.

As to `COc1ccc(C2CC(c3ccc(-n4c(-c5ccncc5)nc5ccc(Br)cc5c4=O)cc3)=NN2C(C)=O)cc1` (centres undefined), the inhibition result in the assay on Rattus norvegicus [1], with Rattus norvegicus [2] and in the assay on Rattus norvegicus [3] was “Active” throughout. The inhibition in vivo at 50 mg/kg with Rattus norvegicus [4] was 64.5%.

In the case of `O=C1N=C(c2ccc(-n3c(-c4ccncc4)nc4ccc(Br)cc4c3=O)cc2)CC(c2ccc(Cl)cc2)N1` (centres undefined), the inhibition in vivo at 50 mg/kg with Mus musculus [6] was 75.4%; in the assay on Rattus norvegicus [4] it was 62.3%. Further, the inhibition entry with Rattus norvegicus [1], in the assay on Rattus norvegicus [2] and in the assay on Rattus norvegicus [3] was “Active” throughout.
